# Reference: the kinase profiling compilation of Christmann-Franck et al. (2016)
# How the values were obtained:
# Settings in all cases: compound 10.0 µM
# ADCK3 (human) = ADCK3 (human) (UniProt Q8NI60)
# ERBB3 (human) = ERBB3 (human) (UniProt P21860)
# SRMS (human) = SRMS (human) (UniProt Q9H3Y6)
# TGFBR2 (human) = TGFBR2 (human) (UniProt P37173)
# [1] = system: MET (human), P08581 [Y1235D]
# CaMK1 (human) = CaMK1 (human) (UniProt Q14012)
# RIPK1 (human) = RIPK1 (human) (UniProt Q13546)
# EPHB3 (human) = EPHB3 (human) (UniProt P54753)
# NEK5 (human) = NEK5 (human) (UniProt Q6P3R8)
# MAPK9 (human) = MAPK9 (human) (UniProt P45984)
# MINK1 (human) = MINK1 (human) (UniProt Q8N4C8)
# BMP2K (human) = BMP2K (human) (UniProt Q9NSY1)
# CAMK2B (human) = CAMK2B (human) (UniProt Q13554)
# MAK (human) = MAK (human) (UniProt P20794)
# CDC42BPG (human) = CDC42BPG (human) (UniProt Q6DT37)
# TAOK1 (human) = TAOK1 (human) (UniProt Q7L7X3)
# MAP3K5 (human) = MAP3K5 (human) (UniProt Q99683)
# CDKL1 (human) = CDKL1 (human) (UniProt Q00532)
# TNNI3K (human) = TNNI3K (human) (UniProt Q59H18)
# MAPK7 (human) = MAPK7 (human) (UniProt Q13164)
# MAP4K3 (human) = MAP4K3 (human) (UniProt Q8IVH8)
# CAMK2A (human) = CAMK2A (human) (UniProt Q9UQM7)
# SYK (human) = SYK (human) (UniProt P43405)
# MERTK (human) = MERTK (human) (UniProt Q12866)
# MAP2K1 (human) = MAP2K1 (human) (UniProt Q02750)
# MAP4K4 (human) = MAP4K4 (human) (UniProt O95819)
# PLK2 (human) = PLK2 (human) (UniProt Q9NYY3)
# [2] = system: FLT3 (human), P36888 [D835H]
# RPS6KA1 KD2 (human) = RPS6KA1 KD2 (human) (UniProt Q15418)
# STK4 (human) = STK4 (human) (UniProt Q13043)
# SIK2 (human) = SIK2 (human) (UniProt Q9H0K1)
# RPS6KA5 KD1 (human) = RPS6KA5 KD1 (human) (UniProt O75582)
# SRPK1 (human) = SRPK1 (human) (UniProt Q96SB4)
# PKMYT1 (human) = PKMYT1 (human) (UniProt Q99640)
# MKNK1 (human) = MKNK1 (human) (UniProt Q9BUB5)
# TBK1 (human) = TBK1 (human) (UniProt Q9UHD2)
# PAK7 (human) = PAK7 (human) (UniProt Q9P286)
# MAP3K7 (human) = MAP3K7 (human) (UniProt O43318)
# RIOK1 (human) = RIOK1 (human) (UniProt Q9BRS2)
# TGFBR1 (human) = TGFBR1 (human) (UniProt P36897)
# NTRK2 (human) = NTRK2 (human) (UniProt Q16620)
# Sequence of ERBB3 (human) (P21860 whole entry, looked up): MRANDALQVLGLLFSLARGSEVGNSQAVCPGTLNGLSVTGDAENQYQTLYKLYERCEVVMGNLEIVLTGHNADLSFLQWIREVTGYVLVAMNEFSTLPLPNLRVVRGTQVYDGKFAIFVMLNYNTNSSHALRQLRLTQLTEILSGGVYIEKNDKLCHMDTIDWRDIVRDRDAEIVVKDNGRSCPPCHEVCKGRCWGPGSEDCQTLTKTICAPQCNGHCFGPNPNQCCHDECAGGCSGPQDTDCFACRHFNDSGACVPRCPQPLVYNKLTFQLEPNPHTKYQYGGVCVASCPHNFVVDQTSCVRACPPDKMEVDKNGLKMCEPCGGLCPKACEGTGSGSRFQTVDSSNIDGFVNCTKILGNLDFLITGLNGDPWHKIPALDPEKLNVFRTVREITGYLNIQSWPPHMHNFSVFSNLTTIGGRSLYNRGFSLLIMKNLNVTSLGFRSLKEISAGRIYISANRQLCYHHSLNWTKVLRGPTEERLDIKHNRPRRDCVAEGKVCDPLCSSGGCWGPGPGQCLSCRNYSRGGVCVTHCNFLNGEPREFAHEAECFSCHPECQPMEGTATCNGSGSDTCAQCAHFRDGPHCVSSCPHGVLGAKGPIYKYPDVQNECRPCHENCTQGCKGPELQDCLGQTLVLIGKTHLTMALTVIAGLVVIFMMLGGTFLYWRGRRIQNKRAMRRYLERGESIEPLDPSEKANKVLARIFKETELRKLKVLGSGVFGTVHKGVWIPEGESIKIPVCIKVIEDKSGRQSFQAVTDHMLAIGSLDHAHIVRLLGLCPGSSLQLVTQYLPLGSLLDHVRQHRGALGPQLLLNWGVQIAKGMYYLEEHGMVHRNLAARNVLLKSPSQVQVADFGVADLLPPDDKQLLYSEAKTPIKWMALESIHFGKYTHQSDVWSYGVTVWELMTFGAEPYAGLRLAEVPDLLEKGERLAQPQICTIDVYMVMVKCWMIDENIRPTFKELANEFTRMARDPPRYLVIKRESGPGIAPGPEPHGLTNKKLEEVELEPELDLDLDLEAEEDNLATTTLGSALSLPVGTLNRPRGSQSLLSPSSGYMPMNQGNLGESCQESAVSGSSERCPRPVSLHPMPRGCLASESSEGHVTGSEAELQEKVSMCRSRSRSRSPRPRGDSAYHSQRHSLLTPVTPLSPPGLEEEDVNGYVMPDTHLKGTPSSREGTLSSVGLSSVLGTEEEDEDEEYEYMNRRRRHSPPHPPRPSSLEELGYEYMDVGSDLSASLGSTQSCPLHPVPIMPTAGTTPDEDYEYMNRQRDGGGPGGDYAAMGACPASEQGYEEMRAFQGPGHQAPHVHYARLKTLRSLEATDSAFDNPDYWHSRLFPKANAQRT
# Sequence of CaMK1 (human) (Q14012 whole entry, looked up): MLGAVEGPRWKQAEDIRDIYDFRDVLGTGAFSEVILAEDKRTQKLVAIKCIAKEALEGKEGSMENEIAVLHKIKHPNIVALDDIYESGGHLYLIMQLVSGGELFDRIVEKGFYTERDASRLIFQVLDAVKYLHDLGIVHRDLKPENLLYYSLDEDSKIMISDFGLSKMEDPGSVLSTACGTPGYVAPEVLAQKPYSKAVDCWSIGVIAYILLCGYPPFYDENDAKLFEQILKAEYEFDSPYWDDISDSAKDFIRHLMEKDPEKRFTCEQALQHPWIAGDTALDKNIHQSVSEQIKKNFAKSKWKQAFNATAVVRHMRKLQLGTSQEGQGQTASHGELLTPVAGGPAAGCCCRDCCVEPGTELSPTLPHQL
# Sequence of ADCK3 (human) (Q8NI60 whole entry, looked up): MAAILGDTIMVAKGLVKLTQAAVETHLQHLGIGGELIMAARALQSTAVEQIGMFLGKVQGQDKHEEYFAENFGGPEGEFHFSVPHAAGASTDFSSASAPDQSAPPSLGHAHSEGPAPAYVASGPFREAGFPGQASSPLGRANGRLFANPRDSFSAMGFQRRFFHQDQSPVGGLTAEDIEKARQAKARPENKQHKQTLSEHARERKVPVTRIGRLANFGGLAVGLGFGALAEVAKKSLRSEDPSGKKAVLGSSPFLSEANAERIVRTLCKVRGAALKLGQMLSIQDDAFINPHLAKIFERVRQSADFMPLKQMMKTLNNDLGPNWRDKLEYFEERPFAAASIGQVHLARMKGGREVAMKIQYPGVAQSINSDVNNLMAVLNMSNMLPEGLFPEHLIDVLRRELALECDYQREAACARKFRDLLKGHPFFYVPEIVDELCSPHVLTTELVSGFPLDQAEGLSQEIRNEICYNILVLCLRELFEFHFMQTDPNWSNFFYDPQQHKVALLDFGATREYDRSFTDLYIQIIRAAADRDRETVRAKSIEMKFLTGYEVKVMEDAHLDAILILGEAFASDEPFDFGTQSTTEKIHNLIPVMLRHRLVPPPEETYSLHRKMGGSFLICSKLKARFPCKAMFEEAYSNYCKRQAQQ
# Sequence of MAK (human) (P20794 whole entry, looked up): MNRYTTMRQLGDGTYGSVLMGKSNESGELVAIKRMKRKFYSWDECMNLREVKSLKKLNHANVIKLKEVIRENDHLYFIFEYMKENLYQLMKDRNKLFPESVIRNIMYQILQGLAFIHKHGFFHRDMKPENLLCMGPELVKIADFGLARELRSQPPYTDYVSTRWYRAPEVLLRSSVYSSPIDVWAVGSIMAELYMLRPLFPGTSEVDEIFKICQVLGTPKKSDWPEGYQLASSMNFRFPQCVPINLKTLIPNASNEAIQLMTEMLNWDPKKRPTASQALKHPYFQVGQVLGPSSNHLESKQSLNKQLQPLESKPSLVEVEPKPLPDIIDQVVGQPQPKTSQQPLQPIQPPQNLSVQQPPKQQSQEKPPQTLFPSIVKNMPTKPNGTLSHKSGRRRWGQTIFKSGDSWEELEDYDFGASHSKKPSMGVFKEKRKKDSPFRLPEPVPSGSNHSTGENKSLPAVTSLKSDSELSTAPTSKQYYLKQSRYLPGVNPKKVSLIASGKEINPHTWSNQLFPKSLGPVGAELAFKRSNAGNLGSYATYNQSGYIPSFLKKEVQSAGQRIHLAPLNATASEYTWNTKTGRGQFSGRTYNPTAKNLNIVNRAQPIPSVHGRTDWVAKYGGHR
# Sequence of PAK7 (human) (Q9P286 whole entry, looked up): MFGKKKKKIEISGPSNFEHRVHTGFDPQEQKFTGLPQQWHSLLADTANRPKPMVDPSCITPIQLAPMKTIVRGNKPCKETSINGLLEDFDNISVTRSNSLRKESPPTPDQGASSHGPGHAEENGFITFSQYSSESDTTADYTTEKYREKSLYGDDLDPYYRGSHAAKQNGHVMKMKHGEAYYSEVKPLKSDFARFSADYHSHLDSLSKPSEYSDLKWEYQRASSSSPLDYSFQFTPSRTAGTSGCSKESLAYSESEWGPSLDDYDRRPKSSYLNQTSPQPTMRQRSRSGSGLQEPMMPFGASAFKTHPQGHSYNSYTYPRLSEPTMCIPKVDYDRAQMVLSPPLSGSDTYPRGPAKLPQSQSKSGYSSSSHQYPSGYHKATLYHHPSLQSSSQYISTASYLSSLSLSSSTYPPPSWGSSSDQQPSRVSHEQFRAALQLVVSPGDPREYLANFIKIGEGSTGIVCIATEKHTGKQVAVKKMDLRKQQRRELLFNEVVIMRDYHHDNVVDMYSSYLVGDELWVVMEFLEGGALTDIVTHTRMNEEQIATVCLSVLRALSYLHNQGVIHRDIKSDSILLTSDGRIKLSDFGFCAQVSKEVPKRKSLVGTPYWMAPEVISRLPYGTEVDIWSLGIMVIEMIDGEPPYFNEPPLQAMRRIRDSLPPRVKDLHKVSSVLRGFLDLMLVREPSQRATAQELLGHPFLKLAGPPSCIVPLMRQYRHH
# Sequence of CDKL1 (human) (Q00532 whole entry, looked up): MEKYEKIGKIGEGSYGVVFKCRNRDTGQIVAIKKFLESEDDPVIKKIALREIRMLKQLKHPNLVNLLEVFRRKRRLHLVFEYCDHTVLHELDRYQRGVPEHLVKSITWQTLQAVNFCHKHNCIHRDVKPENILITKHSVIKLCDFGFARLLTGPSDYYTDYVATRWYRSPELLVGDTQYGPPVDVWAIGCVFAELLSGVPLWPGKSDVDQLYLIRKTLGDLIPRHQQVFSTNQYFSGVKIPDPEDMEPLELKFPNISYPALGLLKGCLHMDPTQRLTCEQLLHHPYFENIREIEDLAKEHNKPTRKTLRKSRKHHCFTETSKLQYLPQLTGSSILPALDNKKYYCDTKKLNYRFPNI
# Sequence of TGFBR1 (human) (P36897 whole entry, looked up): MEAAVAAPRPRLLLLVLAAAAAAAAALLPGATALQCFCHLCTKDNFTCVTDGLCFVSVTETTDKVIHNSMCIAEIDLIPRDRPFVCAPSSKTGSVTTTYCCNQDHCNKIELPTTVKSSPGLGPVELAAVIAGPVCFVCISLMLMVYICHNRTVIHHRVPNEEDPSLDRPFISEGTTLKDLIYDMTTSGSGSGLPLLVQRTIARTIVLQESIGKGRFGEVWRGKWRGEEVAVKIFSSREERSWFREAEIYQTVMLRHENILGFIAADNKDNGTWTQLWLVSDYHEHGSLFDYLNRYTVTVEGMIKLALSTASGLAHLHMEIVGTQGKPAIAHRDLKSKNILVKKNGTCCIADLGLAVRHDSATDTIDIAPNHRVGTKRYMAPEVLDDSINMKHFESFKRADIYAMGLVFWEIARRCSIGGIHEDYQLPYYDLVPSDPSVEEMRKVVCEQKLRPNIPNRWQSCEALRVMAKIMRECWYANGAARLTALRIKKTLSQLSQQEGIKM
# Sequence of SRMS (human) (Q9H3Y6 whole entry, looked up): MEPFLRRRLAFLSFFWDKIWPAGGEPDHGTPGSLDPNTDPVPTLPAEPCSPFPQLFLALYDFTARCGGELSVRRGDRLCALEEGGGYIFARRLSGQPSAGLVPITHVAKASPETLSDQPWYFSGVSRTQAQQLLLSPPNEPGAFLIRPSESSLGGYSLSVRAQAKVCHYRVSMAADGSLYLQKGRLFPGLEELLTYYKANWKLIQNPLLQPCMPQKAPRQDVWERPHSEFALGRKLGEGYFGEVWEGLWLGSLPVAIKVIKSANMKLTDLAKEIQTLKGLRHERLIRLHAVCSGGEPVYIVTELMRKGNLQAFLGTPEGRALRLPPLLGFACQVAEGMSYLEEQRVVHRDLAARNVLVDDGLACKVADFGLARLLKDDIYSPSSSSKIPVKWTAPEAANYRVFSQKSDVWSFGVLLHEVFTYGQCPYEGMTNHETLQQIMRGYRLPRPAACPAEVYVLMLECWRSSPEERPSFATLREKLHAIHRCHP
smiles,measurement,setting,value
CNC(=O)c1cc(Oc2ccc(NC(=O)Nc3ccc(Cl)c(C(F)(F)F)c3)cc2)cc[n+]1[O-],per cent of control,ADCK3 (human),86%
same,per cent of control,ERBB3 (human),62%
same,per cent of control,SRMS (human),10%
same,per cent of control,TGFBR2 (human),3.1%
same,per cent of control,[1],11%
same,per cent of control,CaMK1 (human),58%
same,per cent of control,RIPK1 (human),87%
same,per cent of control,EPHB3 (human),100%
same,per cent of control,NEK5 (human),100%
same,per cent of control,MAPK9 (human),0.05%
same,per cent of control,MINK1 (human),2.4%
same,per cent of control,BMP2K (human),100%
same,per cent of control,CAMK2B (human),89%
same,per cent of control,MAK (human),35%
same,per cent of control,CDC42BPG (human),86%
same,per cent of control,TAOK1 (human),11%
same,per cent of control,MAP3K5 (human),89%
same,per cent of control,CDKL1 (human),45%
same,per cent of control,TNNI3K (human),2.4%
same,per cent of control,MAPK7 (human),65%
same,per cent of control,MAP4K3 (human),12%
same,per cent of control,CAMK2A (human),96%
same,per cent of control,SYK (human),89%
same,per cent of control,MERTK (human),2%
same,per cent of control,MAP2K1 (human),80%
same,per cent of control,MAP4K4 (human),0.5%
same,per cent of control,PLK2 (human),77%
same,per cent of control,[2],0.7%
same,per cent of control,RPS6KA1 KD2 (human),58%
same,per cent of control,STK4 (human),42%
same,per cent of control,SIK2 (human),66%
same,per cent of control,RPS6KA5 KD1 (human),59%
same,per cent of control,SRPK1 (human),100%
same,per cent of control,PKMYT1 (human),100%
same,per cent of control,MKNK1 (human),1%
same,per cent of control,TBK1 (human),100%
same,per cent of control,PAK7 (human),82%
same,per cent of control,MAP3K7 (human),2.9%
same,per cent of control,RIOK1 (human),100%
same,per cent of control,TGFBR1 (human),100%
same,per cent of control,NTRK2 (human),2.4%
CNC(=O)c1cc(Oc2ccc(NC(=O)Nc3ccc(Cl)c(C(F)(F)F)c3)cc2)ccn1,per cent of control,ADCK3 (human),90%
same,per cent of control,ERBB3 (human),70%
same,per cent of control,SRMS (human),96%
same,per cent of control,TGFBR2 (human),25%
same,per cent of control,[1],60%
same,per cent of control,CaMK1 (human),87%
same,per cent of control,RIPK1 (human),88%
same,per cent of control,EPHB3 (human),53%
same,per cent of control,NEK5 (human),100%
same,per cent of control,MAPK9 (human),21%
same,per cent of control,MINK1 (human),80%
same,per cent of control,BMP2K (human),65%
same,per cent of control,CAMK2B (human),96%
same,per cent of control,MAK (human),38%
same,per cent of control,CDC42BPG (human),84%
same,per cent of control,TAOK1 (human),12%
same,per cent of control,MAP3K5 (human),100%
same,per cent of control,CDKL1 (human),75%
same,per cent of control,TNNI3K (human),2.4%
same,per cent of control,MAPK7 (human),81%
same,per cent of control,MAP4K3 (human),48%
same,per cent of control,CAMK2A (human),93%
same,per cent of control,SYK (human),77%
same,per cent of control,MERTK (human),2.4%
same,per cent of control,MAP2K1 (human),95%
same,per cent of control,MAP4K4 (human),8.7%
same,per cent of control,PLK2 (human),100%
same,per cent of control,[2],0.45%
same,per cent of control,RPS6KA1 KD2 (human),77%
same,per cent of control,STK4 (human),96%
same,per cent of control,SIK2 (human),74%
same,per cent of control,RPS6KA5 KD1 (human),77%
same,per cent of control,SRPK1 (human),100%
same,per cent of control,PKMYT1 (human),93%
same,per cent of control,MKNK1 (human),1.6%
same,per cent of control,TBK1 (human),100%
same,per cent of control,PAK7 (human),100%
same,per cent of control,MAP3K7 (human),2.6%
same,per cent of control,RIOK1 (human),100%
same,per cent of control,TGFBR1 (human),100%
same,per cent of control,NTRK2 (human),6.1%
